Experimental findings from PubChem BioAssay (NCI) are described below.

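Step 1: Grow cells in 96-well plates. Step 2: Expose to compound for 48 hours at 5 concentrations. Step 3: Interpolate endpoints linearly; if unreached, use highest concentration. Here, GI50 denotes the concentration required for 50% inhibition of growth. TGI is the concentration that stops growth completely.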

Some test systems named below: 786-0 renal; BT-549 breast; CAKI-1 renal; HCC-2998 colon; HCT-116 colon; HOP-92 NSCLC; SF-295 CNS; SK-OV-3 ovarian; SN12C renal; TK-10 renal.
Common to all, as to assay: NCI anticancer screen, dose series, 48 h

For `Cc1cccc2c3c(sc12)C(c1ccc(F)cc1)C(C#N)=C(N)O3` (stereo not given), the GI50 is 0.297 µM with 786-0 renal; 0.297 µM in the test on BT-549 breast; 0.0466 µM in the test with CAKI-1 renal; 0.311 µM in the test with HCC-2998 colon; 0.052 µM in the test with HCT-116 colon; 1.07 µM with HOP-92 NSCLC. The GI50 with SF-295 CNS is 0.0284 µM; with SK-OV-3 ovarian, 1.35 µM; in the test with SN12C renal it was 0.159 µM; in the test with TK-10 renal it was 5.51 µM. Also, the TGI in the test with 786-0 renal was determined as 14.2 µM; in the test on BT-549 breast it was 3.18 µM; in the test with CAKI-1 renal, 12.5 µM; with HCC-2998 colon, 9.75 µM; in the test with HCT-116 colon, 3.43 µM; in the test with HOP-92 NSCLC, 8.26 µM. The TGI in the test on SF-295 CNS turned out to be 0.329 µM; with SK-OV-3 ovarian it was 27.8 µM; in the test on SN12C renal, 11.7 µM; with TK-10 renal it was 23 µM.
